# Results from patent publication US11766447B2, “3′3′-cyclic dinucleotide analogue comprising a cyclopentanyl modified nucleotide as sting modulator” (INSTITUTE OF ORGANIC CHEMISTRY AND BIOCHEMISTRY ASCR, V.V.I., priority 2019, dated 2023).
# What was measured:
# [1] = target: T1, AQ STING (G230A-R293Q) (Homo sapiens, UniProt Q86WV6, G230A/H232R/R293Q); assay: Differential scanning fluorimetry (DSF) with AQ STING; assay type: binding; conditions: thermal shift vs apoprotein; 150 μM CDN; truncated human AQ STING 0.1 mg/ml
# T1 construct: 8xHis (N, cleaved yes); SUMO (N, cleaved yes); made in house; host or cells: E. coli Rosetta-gami B (DE3)
# Protocol: (§1) Purified PCR products were cleaved with restriction enzymes BamHI (cat. #R0136S, NEB, Ipswich, USA) and NotI (cat. #R0189S, NEB, Ipswich, USA) and cloned into the pSUMO vector linearized with the identical enzymes.
# (§2) DNase I (cat. #D5025, Sigma Aldrich, Czech Republic) and RNase A (cat. #R6513, Sigma Aldrich, Czech Republic) were added (final concentration 50 μg/ml) together with MgCl2 (final concentration 5 mmol·l^−1) to the homogenate and bacteria were lysed using French Press G-M™ High-Pressure Cell Press Homogenizer (1500 psi, 3 cycles). […] The resin was poured into a chromatography column, washed with 50 ml buffer A (50 mmol·l^−1 TrisCl (pH 8.0), 800 mmol·l^−1 NaCl, 3 mmol·l^−1 β-mercaptoethanol; 10% glycerol; 20 mmol·l^−1 imidazol) and 8-His-SUMO tagged STING proteins were eluted with 15 ml buffer A containing 300 mmol·l^−1 imidazole. […] Proteins were concentrated with Amicon® Ultra-15 10 K device (cat. #UFC901008, Merck Millipore, Billerica, USA) and flash frozen in liquid N2.
# (§3) 20 μL solutions of the reaction mixtures were pipetted in triplicates into 96 well optical reaction plates and thermal denaturation of samples were performed on real time PCR cycler (LightCycler® 480 Instrument II—Roche, Basel, Switzerland). The first derivative of the thermal denaturation curves was performed to calculate denaturing temperatures of STING-CDN complexes and STING apoproteins. The thermal shift for each CDN was calculated by subtracting the average denaturing temperature of STING apoprotein from the average denaturing temperature of STING CDN complex.
# [2] = target: T2, WT STING (Homo sapiens, UniProt Q86WV6, H232R); assay: Digitonin assay using 293T wtSTING-FL reporter cells; assay type: cell-based; set-up: host or cells: 293T (ATCC CRL-3216), stably transfected, with 4xISRE firefly luciferase reporter; conditions: 293T wtSTING-FL cells, ISRE firefly luciferase; compounds in Digitonin buffer 30 minutes, then 5 hours; 8-point curve
# Text: Two complementary oligonucleotides of the sequence […] […] […] […] […] The oligonucleotides were mixed in equal molar amounts, hybridized, and cleaved by restriction endonucleases HindIII (cat. #. R0104S, NEB, Ipswich, USA) and BglII (cat. #R0144S, NEB, Ipswich, USA). Ultimately, they were ligated into plasmid pGL4.27 (cat. #E6651, Promega, Madison, USA) linearized with the same enzymes. As result the sequence with four ISRE sites was placed upstream of the minimum promoter of firefly luciferase reporter gene.
# After 5 minutes incubation at room temperature (RT), 250 μL of the mixture was added dropwise to the cells in one well. Cells were incubated 36 hours at 37° C. with 5% CO2, and then detached with 0.05% Trypsin and 0.22 g/L EDTA (both cat. #L0941, Biowest, Riverside, USA).
# Transfected cells were seeded onto poly-D-lysine coated six well plates at density 50,000 cells per 1 cm^2 in DMEM medium with high glucose containing 10% heat inactivated FBS, 30 μg/mL blasticidin (cat. #ant-b1-05, InvivoGen, San Diego, USA), 0.06 mg/ml Penicillin G and 0.1 mg/ml Streptomycin Sulfate (both cat. #. L0018, Biowest, Riverside, USA). The medium was replenished every 3-4 days until visible colonies of cells resistant to blasticidin were formed.
# Blasticidin resistant cells stably expressing WT STING were further transfected with […] plasmid following the same procedure as described above. […] Homogeneous culture of stably double transfected cells was prepared by limiting dilution of cells in 96 well plates and wells with cells were selected that originated from a single cell.
# The medium was removed next day and three fold serial dilutions of compounds in Digitonin buffer containing 50 mmol·l^−1 HEPES (cat. #H3375, Sigma Aldrich, Czech Republic) pH 7.0, 100 mmol·l^−1 KCl, 3 mmol·l^−1 MgCl2, 0.1 mmol·l^−1 DTT (cat. #D0632, Sigma Aldrich, Czech Republic), 85 mmol·l^−1 Sucrose (cat. #S7903, Sigma Aldrich, Czech Republic), 0.2% BSA (cat. #A2153, Sigma Aldrich, Czech Republic), 1 mmol·l^−1 ATP (cat. #A1852, Sigma Aldrich, Czech Republic), 0.1 mmol·l^−1 GTP (cat. #G8877, Sigma Aldrich, Czech Republic), and 10 μg/mL Digitonin A (cat. #D141, Sigma Aldrich, Czech Republic) were added to the cells. The buffer was removed after 30 minutes incubation at 37° C. with 5% CO2, the cells were washed once with 100 μl of cultivation medium, and 100 μl of medium was added to each well. The plates with cells were incubated for 5 hours at 37° C. with 5% CO2, 50 μl of the medium was removed and 30 μl of ONE-Glo™ Luciferase Assay System reagent (cat. #E6120, Promega, Madison, USA) was added to each well. Luminescence was read on Synergy H1 (Biotek, Winooski, USA). GraphPad Prism (La Jolla, USA) was used to calculate the 50% effective concentration ([…] from an 8-point dose-response curve.
# Target sequence in this assay (Q86WV6 whole entry H232R): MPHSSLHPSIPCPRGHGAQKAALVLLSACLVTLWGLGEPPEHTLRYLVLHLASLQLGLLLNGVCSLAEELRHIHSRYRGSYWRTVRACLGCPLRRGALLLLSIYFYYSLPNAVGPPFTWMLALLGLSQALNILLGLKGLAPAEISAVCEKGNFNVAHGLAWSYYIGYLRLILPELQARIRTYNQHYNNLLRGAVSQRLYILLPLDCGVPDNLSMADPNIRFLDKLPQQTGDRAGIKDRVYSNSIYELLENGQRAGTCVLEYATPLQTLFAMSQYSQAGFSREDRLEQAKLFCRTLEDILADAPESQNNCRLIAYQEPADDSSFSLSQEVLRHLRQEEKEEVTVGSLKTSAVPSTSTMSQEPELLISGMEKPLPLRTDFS
# [3] = target: T2, WT STING; assay: Differential scanning fluorimetry (DSF) with WT STING; assay type: binding; set-up: 8xHis (N, cleaved yes); SUMO (N, cleaved yes); made in house; host or cells: E. coli Rosetta-gami B (DE3); conditions: thermal shift vs apoprotein; 150 μM CDN; truncated human WT STING 0.1 mg/ml
# Protocol: as §1, §2, §3
# Target sequence in this assay (Q86WV6 140-343 H232R): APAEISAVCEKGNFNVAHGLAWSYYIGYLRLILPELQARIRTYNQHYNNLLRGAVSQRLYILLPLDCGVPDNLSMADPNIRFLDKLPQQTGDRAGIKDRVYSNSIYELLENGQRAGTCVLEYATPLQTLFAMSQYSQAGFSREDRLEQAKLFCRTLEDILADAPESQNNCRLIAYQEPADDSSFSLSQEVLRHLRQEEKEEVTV
# T1 sequence (Q86WV6 140-343 G230A/H232R/R293Q): as the sequence (Q86WV6 140-343 H232R) above, with G91A, R154Q counted along it
Structure (SMILES),DSF ΔTm (° C.) AQ STING [1] [°C],EC50 [2] [nM],DSF ΔTm (° C.) WT STING [3] [°C],ΔTm at 150 µM [1] [°C],ΔTm at 150 µM [3] [°C]
"Nc1nc2c(ncn2[C@@H]2O[C@@H]3COP(=O)(O)OC4C(O)[C@H](n5cnc6c(N)ncnc65)C[C@@H]4COP(=O)(O)OC3C2O)c(=O)[nH]1 (stereo partly drawn) [Compound 112, 2-amino-9-((2R,3S,3aS,7aR,9R,10S,10aR,14aR)-9-(6-amino-9H-purin-9-yl)-3,5,10,12-tetrahydroxy-5,12-dioxidodecahydro-2H-cyclopenta[d]furo[3,2-j][1,3,7,9]tetraoxa[2,8]diphosphacyclododecin-2-yl)-1,9-dihydro-6H-purin-6-one]",13.2,120,5.2,–,–
"Nc1nc2c(ncn2[C@@H]2C[C@@H]3COP(=O)(O)OC4C(O)[C@H](n5cnc6c(N)ncnc65)O[C@@H]4COP(=O)(O)OC3C2O)c(=O)[nH]1 (stereo partly drawn) [Compound 113, 2-amino-9-((2R,3S,3a5,7aR,9R,10S,10aR,14aR)-2-(6-amino-9H-purin-9-yl)-3,5,10,12-tetrahydroxy-5,12-dioxidodecahydro-2H-cyclopenta[d]furo[3,2-j][1,3,7,9]tetraoxa[2,8]diphosphacyclododecin-9-yl)-1,9-dihydro-6H-purin-6-one]",–,3600,–,7.9,2.1
"COC1C2OP(=O)(O)OC[C@H]3C[C@@H](n4cnc5c(N)ncnc54)C(O)C3OP(=O)(O)OC[C@H]2O[C@H]1n1cnc2c(=O)[nH]c(N)nc21 (stereo partly drawn) [Compound 114, 2-amino-9-((2R,3R,3aR,7aR,9R,10S,10aR,14aR)-9-(6-amino-9H-purin-9-yl)-5,10,12-trihydroxy-3-methoxy-5,12-dioxidodecahydro-2H-cyclopenta[d]furo[3,2-j][1,3,7,9]tetraoxa[2,8]diphosphacyclododecin-2-yl)-1,9-dihydro-6H-purin-6-one]",–,21800,–,4.6,0.4
"Nc1nc2c(ncn2[C@H]2CC3OP(=O)(O)OC[C@H]4O[C@@H](n5cnc6c(N)ncnc65)C(O)C4OP(=O)(O)OC[C@H]3C2)c(=O)[nH]1 (stereo partly drawn) [Compound 115, (6R,8R,15R,17R)-17-(2-amino-6-oxo-6,9-dihydro-1H-purin-9-yl)-8-(6-amino-9H-purin-9-yl)-3,9,12-trihydroxy-2,4,7,11,13-pentaoxa-3λ^5,12λ^5-diphosphatricyclo[13.3.0.0^6,10]octadecane-3,12-dione]",–,70,–,10.5,3.8
"Nc1nc2c(ncn2[C@H]2CC3OP(=O)(O)OC[C@H]4O[C@@H](n5cnc6c(N)ncnc65)C(F)C4OP(=O)(O)OC[C@H]3C2)c(=O)[nH]1 (stereo partly drawn) [Compound 116, (6R,8R,15R,17R)-17-(2-amino-6-oxo-6,9-dihydro-1H-purin-9-yl)-8-(6-amino-9H-purin-9-yl)-9-fluoro-3,12-dihydroxy-2,4,7,11,13-pentaoxa-3λ^5,12λ^5-diphosphatricyclo[13.3.0.0^6,10]octadecane-3,12-dione]",–,7,–,13.1,8.5
"Nc1nc2c(ncn2[C@H]2CC3OP(=O)(O)OC[C@H]4O[C@@H](n5cnc6c(N)ncnc65)CC4OP(=O)(O)OC[C@H]3C2)c(=O)[nH]1 (stereo partly drawn) [Compound 117, (6R,8R,15R,17R)-17-(2-amino-6-oxo-6,9-dihydro-1H-purin-9-yl)-8-(6-amino-9H-purin-9-yl)-3,12-dihydroxy-2,4,7,11,13-pentaoxa-3λ^5,12λ^5-diphosphatricyclo[13.3.0.0^6,10]octadecane-3,12-dione]",–,200,–,7.1,2.2
"Nc1nc2c(ncn2[C@@H]2C[C@@H]3COP(=O)(O)OC4C(F)[C@H](n5cnc6c(=O)[nH]c(N)nc65)O[C@@H]4COP(=O)(O)OC3C2O)c(=O)[nH]1 (stereo partly drawn) [Compound 122, 9,9′-((2R,3R,3aR,7aR,9R,10S,10aR,14aR)-3-fluoro-5,10,12-trihydroxy-5,12-dioxidodecahydro-2H-cyclopenta[d]furo[3,2-j][1,3,7,9]tetraoxa[2,8]diphosphacyclododecine-2,9-diyl)bis(2-amino-1,9-dihydro-6H-purin-6-one)]",–,1600,–,9.5,3.5

# Further lines, results first:
DSF ΔTm (° C.) AQ STING [1] [°C],EC50 [2] [nM],DSF ΔTm (° C.) WT STING [3] [°C],ΔTm at 150 µM [1] [°C],ΔTm at 150 µM [3] [°C],Structure (SMILES)
–,1200,–,4.6,1.1,"Nc1nc2c(ncn2[C@H]2CC3OP(=O)(O)OC[C@H]4C[C@@H](n5cnc6c(=O)[nH]c(N)nc65)C(O)C4OP(=O)(O)OC[C@H]3C2)c(=O)[nH]1 (stereo partly drawn) [Compound 123, 9,9′-((2R,3S,3aR,7aR,9R,10aS,14aR)-3,5,12-trihydroxy-5,12-dioxidododecahydrodicyclopenta[d,j][1,3,7,9]tetraoxa[2,8]-diphospha-cyclododecine-2,9-diyl)bis(2-amino-1,9-dihydro-6H-purin-6-one)]"
–,13200,–,5.1,0.7,"Nc1ncnc2c1ncn2[C@H]1CC2OP(=O)(O)OC[C@H]3C[C@@H](n4cnc5c(N)ncnc54)CC3OP(=O)(O)OC[C@H]2C1 (stereo partly drawn) [Compound 125, (2R,3aS,7aR,9R,10aS,14aR)-2,9-bis(6-amino-9H-purin-9-yl)-5,12-dihydroxydodecahydrodicyclopenta[d,j][1,3,7,9]-tetraoxa[2,8]diphosphacyclododecine 5,12-dioxide]"
–,1800,–,7.5,1.1,"Nc1ncnc2c1ncn2[C@H]1CC2OP(=O)(O)OC[C@H]3O[C@@H](n4cnc5c(N)ncnc54)CC3OP(=O)(O)OC[C@H]2C1 (stereo partly drawn) [Compound 126, (2R,3aS,7aR,9R,10aS,14aR)-2,9-bis(6-amino-9H-purin-9-yl)-5,12-dihydroxydecahydro-2H-cyclopenta[d]furo[3,2-j][1,3,7,9]tetraoxa[2,8]diphosphacyclododecine 5,12-dioxide]"
–,100,–,7.9,2.6,"Nc1ncnc2c1ncn2[C@@H]1C[C@@H]2COP(=O)(O)O[C@H]3[C@@H](F)[C@H](n4cnc5c(N)ncnc54)O[C@@H]3COP(=O)(O)O[C@H]2[C@@H]1F [Compound 127, (1R,6R,8R,9R,10R,15R,17R,18R)-8,17-bis(6-amino-9H-purin-9-yl)-9,18-difluoro-3,12-dihydroxy-2,4,7,11,13-pentaoxa-3λ^5,12λ^5-diphosphatricyclo[13.3.0.0^6,10]octadecane-3,12-dione]"
